Experimental data reported in ChEMBL document CHEMBL3045359, “Synthesis, stereochemistry, and antimicrobial evaluation of t(3)-isopropyl-r(2), c(6)-di-2-furanylpiperidin- 4-one and its derivatives” (2006).
Values after ≈ are worked out from the molar mass of the structure shown.

Experiments:
Assay type in all cases: functional
Candida [1] = assay: Antifungal activity against Candida-6 after 72 to 96 hr by two-fold serial dilution method
Aspergillus flavus = assay: Antifungal activity against Aspergillus flavus after 72 to 96 hr by two-fold serial dilution method
Staphylococcus aureus = assay: Antibacterial activity against Staphylococcus aureus after 24 hr by two-fold serial dilution method
Pseudomonas aeruginosa = assay: Antibacterial activity against Pseudomonas aeruginosa after 24 hr by twofold serial dilution method
Candida [2] = assay: Antifungal activity against Candida-51 after 72 to 96 hr by two-fold serial dilution method
Enterococcus faecalis = assay: Antibacterial activity against Enterococcus faecalis after 24 hr by two-fold serial dilution method
Aspergillus niger = assay: Antifungal activity against Aspergillus niger after 72 to 96 hr by two-fold serial dilution method
Bacillus subtilis = assay: Antibacterial activity against Bacillus subtilis after 24 hr by two-fold serial dilution method

| MIC (Candida [1]) | MIC (Aspergillus flavus) | MIC (Staphylococcus aureus) | MIC (Pseudomonas aeruginosa) | MIC (Candida [2]) | MIC (Enterococcus faecalis) | MIC (Aspergillus niger) | MIC (Bacillus subtilis) | Structure (SMILES) |
| --- | --- | --- | --- | --- | --- | --- | --- | --- |
| 50 µg/mL (≈ 183 µM) | > 100 µg/mL | > 100 µg/mL | 50 µg/mL (≈ 183 µM) | 25 µg/mL (≈ 91.5 µM) | > 100 µg/mL | > 100 µg/mL | 100 µg/mL (≈ 366 µM) | CC(C)C1C(=O)CC(c2ccco2)NC1c1ccco1 (stereo unspecified) |
| 12.5 µg/mL (≈ 33.1 µM) | 25 µg/mL (≈ 66.2 µM) | 25 µg/mL (≈ 66.2 µM) | 50 µg/mL (≈ 132 µM) | 12.5 µg/mL (≈ 33.1 µM) | 50 µg/mL (≈ 132 µM) | 25 µg/mL (≈ 66.2 µM) | 12.5 µg/mL (≈ 33.1 µM) | CC(C)C1C(=O)CC(c2ccco2)N(C(=O)c2ccccc2)C1c1ccco1 (stereo unspecified) |
| 50 µg/mL (≈ 159 µM) | 50 µg/mL (≈ 159 µM) | 12.5 µg/mL (≈ 39.6 µM) | 25 µg/mL (≈ 79.3 µM) | 25 µg/mL (≈ 79.3 µM) | 50 µg/mL (≈ 159 µM) | 50 µg/mL (≈ 159 µM) | 12.5 µg/mL (≈ 39.6 µM) | CC(=O)N1C(c2ccco2)CC(=O)C(C(C)C)C1c1ccco1 (stereo unspecified) |
| 12.5 µg/mL (≈ 37.9 µM) | 25 µg/mL (≈ 75.9 µM) | 25 µg/mL (≈ 75.9 µM) | 25 µg/mL (≈ 75.9 µM) | 50 µg/mL (≈ 152 µM) | 50 µg/mL (≈ 152 µM) | 50 µg/mL (≈ 152 µM) | 12.5 µg/mL (≈ 37.9 µM) | CCC(=O)N1C(c2ccco2)CC(=O)C(C(C)C)C1c1ccco1 (stereo unspecified) |

Continued, compound first:

| Structure (SMILES) | MIC (Candida [1]) | MIC (Aspergillus flavus) | MIC (Staphylococcus aureus) | MIC (Pseudomonas aeruginosa) | MIC (Candida [2]) | MIC (Enterococcus faecalis) | MIC (Aspergillus niger) | MIC (Bacillus subtilis) |
| --- | --- | --- | --- | --- | --- | --- | --- | --- |
| CC(C)C1C(=O)CC(c2ccco2)N(C=O)C1c1ccco1 (stereo unspecified) | 25 µg/mL (≈ 83 µM) | 50 µg/mL (≈ 166 µM) | 50 µg/mL (≈ 166 µM) | 50 µg/mL (≈ 166 µM) | 50 µg/mL (≈ 166 µM) | 25 µg/mL (≈ 83 µM) | 50 µg/mL (≈ 166 µM) | 25 µg/mL (≈ 83 µM) |
| CN[C@@H]1[C@H](O[C@H]2[C@H](O[C@H]3[C@H](O)[C@@H](O)[C@H](N=C(N)N)[C@@H](O)[C@@H]3N=C(N)N)O[C@@H](C)[C@]2(O)C=O)O[C@@H](CO)[C@H](O)[C@H]1O [STREPTOMYCIN] |  |  | 25 µg/mL (≈ 43 µM) | 25 µg/mL (≈ 43 µM) |  | 50 µg/mL (≈ 86 µM) |  | 12.5 µg/mL (≈ 21.5 µM) |
| CC(C)C1/C(=N/O)CC(c2ccco2)NC1c1ccco1 (stereo unspecified) | 50 µg/mL (≈ 173 µM) | 25 µg/mL (≈ 86.7 µM) | 50 µg/mL (≈ 173 µM) | 100 µg/mL (≈ 347 µM) | 50 µg/mL (≈ 173 µM) | 50 µg/mL (≈ 173 µM) | 100 µg/mL (≈ 347 µM) | 50 µg/mL (≈ 173 µM) |
| C[C@@H]1[C@H](O)[C@@H](C)/C=C/C=C/C=C/C=C/C=C/C=C/C=C/[C@H](O[C@@H]2O[C@H](C)[C@@H](O)[C@H](N)[C@@H]2O)C[C@@H]2O[C@](O)(C[C@@H](O)C[C@@H](O)[C@H](O)CC[C@@H](O)C[C@@H](O)CC(=O)O[C@H]1C)C[C@H](O)[C@H]2C(=O)O [AMPHOTERICIN B] | 25 µg/mL (≈ 27.1 µM) | 50 µg/mL (≈ 54.1 µM) |  |  | 25 µg/mL (≈ 27.1 µM) |  | 50 µg/mL (≈ 54.1 µM) |  |
